The source of these data is PMC9996372, “Aim18p and Aim46p are chalcone isomerase domain–containing mitochondrial hemoproteins in Saccharomyces cerevisiae” (The Journal of Biological Chemistry, 2023).

Assay [1] deals with T1, AtFAP1-Nd45-WT (Arabidopsis thaliana, UniProt Q9M1X2).
T1 construct: gene FAP1
The settings on record: 5 μM protein, 50 μM fatty acid, 100 mM Hepes pH 7.5, 150 mM NaCl, 1 h at RT; versus DMSO.

The target in assay [2] is T2, AtCHI1-FL-WT (Arabidopsis thaliana, UniProt P41088).
T2 construct: gene CHI1; full-length; N-terminal 8X-His tag
T2 sequence (P41088 1-246): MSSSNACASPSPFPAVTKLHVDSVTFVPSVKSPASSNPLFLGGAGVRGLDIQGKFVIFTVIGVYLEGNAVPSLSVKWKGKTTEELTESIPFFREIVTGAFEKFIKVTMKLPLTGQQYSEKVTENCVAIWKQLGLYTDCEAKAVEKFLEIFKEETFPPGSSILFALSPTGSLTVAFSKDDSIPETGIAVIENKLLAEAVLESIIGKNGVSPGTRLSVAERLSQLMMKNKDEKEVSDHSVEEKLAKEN
The assay can be described thus: chalcone isomerase assay, depletion of A381. The class given is biochemical. The settings on record: 10 nM protein, 200 μM naringenin chalcone, 50 mM Hepes pH 7.5, 150 mM NaCl, 5% EtOH; product naringenin.

T1 sequence (Q9M1X2 46-279): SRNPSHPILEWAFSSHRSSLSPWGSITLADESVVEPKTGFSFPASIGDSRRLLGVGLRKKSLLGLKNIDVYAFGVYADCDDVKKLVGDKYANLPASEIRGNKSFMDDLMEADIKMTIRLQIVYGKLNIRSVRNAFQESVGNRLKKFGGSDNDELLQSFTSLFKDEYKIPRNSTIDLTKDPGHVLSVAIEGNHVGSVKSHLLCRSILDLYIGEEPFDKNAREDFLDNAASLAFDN

`CC/C=C\C/C=C\C/C=C\CCCCCCCC(=O)O` [Linolenic acid]: the ΔTm entry in assay [1] is given as “AtFAP1-Nd45-WT was the only protein stabilized by the addition of linolenic acid”.
In the case of `O=C(/C=C/c1ccc(O)cc1)c1c(O)cc(O)cc1O` [naringenin chalcone], in assay [2], the “chalcone isomerase assay, depletion of A381” value was “Only AtCHI-WT rapidly converted naringenin chalcone to naringenin”.
